Experimental data published in PubChem BioAssay AID624167 (Sanford-Burnham Center for Chemical Genomics, 2012).
Activity calls are given as the source filed them.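 The calls were made as follows: active = mean IC50 for reducing PEG3 promoter reporter signal at or below a set limit, with IC50 above the limit in both counter screens; inactive = the rest, including counter screen hits.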

Assays:
Test in all cases: Peg3 promoter luciferase inhibitors, potency, dose response, cell-based, HeLa, CREF/GAPDH counter-screen panel (AID 624167)
[1] = target: PEG-3 (UniProt Q6IN02); details: HeLa PEG-Prom luciferase reporter, overnight, CREF/GAPDH counter-screens, mean of runs
[2] = system: PEG-3; details: HeLa PEG-Prom luciferase reporter, overnight, CREF/GAPDH counter-screens
[3] = system: Rat fibroblasts (CREF); details: CREF/GAPDH counter-screens
[4] = run 1, dose range 1, individual replicate IC50 per panel
[5] = run 2, dose range 1, individual replicate IC50 per panel

Sequence of PEG-3 (UniProt Q6IN02) (Q6IN02 whole entry, looked up): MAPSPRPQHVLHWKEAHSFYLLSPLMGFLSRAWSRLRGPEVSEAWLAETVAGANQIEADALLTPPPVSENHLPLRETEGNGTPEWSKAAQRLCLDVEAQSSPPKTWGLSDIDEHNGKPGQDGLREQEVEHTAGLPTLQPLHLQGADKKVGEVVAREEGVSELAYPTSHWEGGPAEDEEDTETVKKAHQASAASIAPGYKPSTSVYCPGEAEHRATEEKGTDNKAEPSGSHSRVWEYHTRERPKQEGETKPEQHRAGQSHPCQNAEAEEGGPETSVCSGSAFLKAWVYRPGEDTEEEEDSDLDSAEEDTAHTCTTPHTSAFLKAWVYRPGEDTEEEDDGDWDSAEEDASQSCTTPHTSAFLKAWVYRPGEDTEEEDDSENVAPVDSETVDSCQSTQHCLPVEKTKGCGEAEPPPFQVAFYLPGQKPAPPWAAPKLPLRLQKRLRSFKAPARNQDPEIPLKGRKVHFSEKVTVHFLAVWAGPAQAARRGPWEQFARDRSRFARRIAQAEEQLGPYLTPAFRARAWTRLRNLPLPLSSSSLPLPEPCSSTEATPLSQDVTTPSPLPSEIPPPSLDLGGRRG

Structure (SMILES) | IC50 [1] | IC50 [2, 4] [nM] | IC50 [2, 5] [nM] | IC50 ([3]; mean of runs) | IC50 [3, 4] [nM] | IC50 [3, 5] [nM]
CN(C)c1ccc(/C=C/c2nc3ccccc3s2)cc1 | 6120 nM | 4730 | 7510 | 1560 nM | 1170 | 1940
Cc1ccc(-c2cc3c(N=O)c4ccccc4c-3n[nH]2)cc1 | 1030 nM | 1200 | 860 | 18800 nM | 2730 | 34900
C(=N\Nc1nc2ccccc2[nH]1)/c1ccccn1 | 4060 nM | 4260 | 3870 | 1480 nM | 1140 | 1830
Cc1cc(N2CCN(C)CC2)ccc1NC(=O)c1c2c(nc3ccccc13)CCN(Cc1ccccc1)C2 | 8920 nM | 5600 | 12200 | 3010 nM | 2440 | 3590
CCC(=O)NC(c1cccs1)c1cc(Cl)c2cccnc2c1O (stereo not drawn) | 4680 nM | 4970 | 4390 | 842 nM | < 100000 | 842
Cc1cc(S(=O)(=O)c2ccc(Cl)cc2)nc(S(=O)(=O)c2ccc(Cl)cc2)c1C#N | 5140 nM | 6140 | 4140 | 13100 nM | 10900 | 15300
COC(=O)Cc1[nH]n(-c2nc3ccccc3s2)c(=O)c1C(C)=Nc1ccc(C)cc1 | 865 nM | 980 | 751 | 14800 nM | 25200 | 4520
CC(=O)NC(c1ccc(N(C)C)cc1)c1cc(Cl)c2cccnc2c1O (stereo not drawn) | 3760 nM | 3140 | 4370 | 53700 nM (inactive) | > 100000 | 7340
Cc1ccc(-c2nnc(SCC(=O)Nc3ccccc3F)o2)cc1 | 1540 nM | 1450 | 1640 | 3270 nM | 3450 | 3080
O=C(CNCCC1=CCCCC1)Nc1ccc(N2CCCCCC2)cc1 | 9980 nM | 10600 | 9370 | 16600 nM | 16500 | 16800
COc1cc(SC)ccc1C(=O)Nc1nc2ccccc2[nH]1 | inactive | 377 | > 100000 | 296 nM | 305 | 288
Brc1ccc(N=Nc2ccc3ccccc3n2)cc1 | 6100 nM | 5750 | 6450 | 456 nM | 213 | 698
CCOc1ccc(OCc2cccc(C(=O)O)c2)cc1 | 359 nM | 232 | 487 | 3740 nM | 3880 | 3600
CC1CCN(c2ccc(-c3cccs3)nn2)CC1 | 1820 nM | 2160 | 1480 | 341 nM | 316 | 366
O=C(/C=C/Nc1ccccc1Br)c1ccccn1 | 1100 nM | 895 | 1310 | 506 nM | 414 | 599
COc1ccccc1C(=O)Nc1nc2ccccc2[nH]1 | 535 nM | 707 | 362 | 280 nM | 226 | 335
CN(C)c1ccc(/C=C/c2ccc3ccccc3n2)cc1 | 3290 nM | 2090 | 4480 | 2690 nM | 2150 | 3220
CCN1C=CC(=C2C(=O)c3ccccc3C2=O)C=C1 | 957 nM | 834 | 1080 | 850 nM | 947 | 753
Cc1ccc2nc(-c3ccc4c(c3)OCCO4)cn2c1 | 624 nM | 840 | 409 | 731 nM | 691 | 771
COc1ccc(C(=O)/C=C/Nc2ccccn2)cc1 | 2600 nM | 2020 | 3180 | 3610 nM | 3450 | 3770
CC(=O)N1CCCC(c2cc(C(=O)Nc3ccccc3)no2)C1 (stereo not drawn) | 6410 nM | 4870 | 7940 | 9510 nM | 9260 | 9760
c1ccc(-c2noc(-c3ccc4c(c3)OCO4)n2)nc1 | 818 nM | 622 | 1010 | 694 nM | 309 | 1080
C/C(=N/NC(=O)c1cc(C2CC2)[nH]n1)c1cccs1 | 6810 nM | 5930 | 7690 | 3840 nM | 3850 | 3830
